In ChEMBL document CHEMBL5096222, “Discovery of a Trifluoromethoxy Cyclopentanone Benzothiazole Receptor-Interacting Protein Kinase 1 Inhibitor as the Treatment for Alzheimer's Disease” (J Med Chem, 2022):

Assays:
[1] = target: T1, Receptor-interacting serine/threonine-protein kinase 1 (Homo sapiens, UniProt Q13546); experiment: Binding affinity to recombinant human wild type partial length RIPK1 (M1 to K305 residues) expressed in bacterial expression system by KINOMEscan TM assay
T1 sequence (Q13546 whole entry): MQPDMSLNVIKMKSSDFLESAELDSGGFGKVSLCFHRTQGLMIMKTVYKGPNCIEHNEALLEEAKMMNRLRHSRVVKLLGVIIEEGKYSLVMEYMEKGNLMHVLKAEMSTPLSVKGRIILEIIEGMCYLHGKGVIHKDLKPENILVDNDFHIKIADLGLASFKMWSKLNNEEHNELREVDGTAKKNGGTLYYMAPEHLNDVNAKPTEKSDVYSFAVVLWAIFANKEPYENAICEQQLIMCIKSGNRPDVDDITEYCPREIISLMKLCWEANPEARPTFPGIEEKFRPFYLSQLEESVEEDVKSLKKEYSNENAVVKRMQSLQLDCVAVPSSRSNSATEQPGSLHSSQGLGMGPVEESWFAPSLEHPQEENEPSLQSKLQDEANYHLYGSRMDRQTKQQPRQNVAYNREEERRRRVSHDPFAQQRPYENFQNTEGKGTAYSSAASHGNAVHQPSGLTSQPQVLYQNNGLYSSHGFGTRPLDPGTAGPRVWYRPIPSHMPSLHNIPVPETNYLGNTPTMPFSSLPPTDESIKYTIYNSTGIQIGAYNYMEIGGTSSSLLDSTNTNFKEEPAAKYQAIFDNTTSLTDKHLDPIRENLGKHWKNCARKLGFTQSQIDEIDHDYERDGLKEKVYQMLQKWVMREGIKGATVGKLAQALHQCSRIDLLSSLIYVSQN

[2] = Cytotoxicity against human HT-29 cells assessed as reduction in cell viability by celltiter-glo luminescent cell viability assay; assay type: toxicity, cell-based
[3] = target: Receptor-interacting serine/threonine-protein kinase 3 (Homo sapiens, UniProt Q9Y572); experiment: Binding affinity to recombinant human wild type partial length RIPK3 (M1 to Q307 residues) expressed in bacterial expression system by KINOMEscan TM assay
Sequence of Receptor-interacting serine/threonine-protein kinase 3 (Q9Y572 whole entry, the tested form may be a part): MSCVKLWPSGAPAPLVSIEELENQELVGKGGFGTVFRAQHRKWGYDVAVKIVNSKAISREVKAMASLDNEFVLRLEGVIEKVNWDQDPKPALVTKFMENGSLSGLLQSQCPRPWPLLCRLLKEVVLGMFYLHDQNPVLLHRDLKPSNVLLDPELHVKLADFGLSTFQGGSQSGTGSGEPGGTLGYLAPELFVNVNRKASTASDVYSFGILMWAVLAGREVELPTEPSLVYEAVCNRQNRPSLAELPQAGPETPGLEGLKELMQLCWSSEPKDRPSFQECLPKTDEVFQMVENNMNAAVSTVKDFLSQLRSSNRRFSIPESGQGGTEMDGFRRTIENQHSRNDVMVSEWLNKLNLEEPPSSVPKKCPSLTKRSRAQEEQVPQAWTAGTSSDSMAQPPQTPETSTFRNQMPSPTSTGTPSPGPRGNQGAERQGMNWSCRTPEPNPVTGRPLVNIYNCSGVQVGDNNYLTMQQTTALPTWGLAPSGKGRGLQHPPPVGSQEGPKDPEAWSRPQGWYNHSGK

[4] = tested on: HT-29; experiment: Anti-necroptotic activity in TSZ induced human HT-29 cells assessed as increase in cell viability pretreated with compound followed by TSZ stimulation and measured after 16 hrs by celltiter-glo luminescent cell viability assay; assay type: functional, cell-based

Structure (SMILES) | Kd [1] | CC50 [2] | Kd [3] | EC50 [4]
O=C(Cc1cccc(OC(F)(F)F)c1)Nc1cc(Oc2cc3nc(NC(=O)C4CC4F)sc3cc2F)ccc1F (stereo not drawn) | 18 nM | > 50000 nM | > 5000 nM | 10 nM
O=C(Cc1cccc(OC(F)(F)F)c1)Nc1cc(Oc2cc3nc(NC(=O)C4CC4)sc3cc2F)ccc1F | 49 nM | > 50000 nM | 120 nM | 82 nM
